Test system: Enterococcus faecalis
Assay: Antibacterial activity against Streptococcus faecalis assessed as growth inhibition

Question: Which IC50 does the source give for `Nc1nc(N)c2cc(S(=O)(=O)c3ccc4ccccc4c3)ccc2n1` [6-naphthalen-2-ylsulfonylquinazoline-2,4-diamine] here?
Answer: Its IC50 is 0.02 nM.

— BindingDB's records for doi:10.1021/jm00196a019 (1979)
